# Laboratory results published in patent publication US7645759B2, “Non-peptide bradykinin antagonists and pharmaceutical compositions therefrom” (Istituto Luso Farmaco D'Italia S.p.A., priority 2004, dated 2010).
# Structures can show the parent of a compound that is named as a salt. Where two headings read alike, the source gives them in different places.
# Legend:
# [1] = target: T1, B2 human receptor (Homo sapiens, UniProt P30411); test: Binding to the human B2 receptor expressed in CHO cells
# T1 construct: expressed in transfected cells; host or cells: CHO cells
# T1 sequence (P30411 1-391): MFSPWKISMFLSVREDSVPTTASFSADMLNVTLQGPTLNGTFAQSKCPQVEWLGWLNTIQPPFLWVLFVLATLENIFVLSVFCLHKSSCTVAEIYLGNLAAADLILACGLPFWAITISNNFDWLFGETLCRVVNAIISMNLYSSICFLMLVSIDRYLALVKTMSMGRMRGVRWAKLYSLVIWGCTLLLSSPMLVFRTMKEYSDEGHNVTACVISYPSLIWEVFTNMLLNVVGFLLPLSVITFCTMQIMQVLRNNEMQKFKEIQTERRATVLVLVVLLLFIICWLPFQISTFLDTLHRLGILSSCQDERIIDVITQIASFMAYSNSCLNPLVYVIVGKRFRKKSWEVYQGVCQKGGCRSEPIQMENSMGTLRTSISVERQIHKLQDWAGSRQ
# [2] = target: T1, B2 human receptor; test: cell-based
# [3] = system: BK-induced bronchospasm; test: Inhibition of BK-induced bronchospasm in the guinea pig; assay type: in vivo; conditions: intratracheal dose which inhibited by 80% bronchial constriction for at least 210 min; for ED80: Cavia porcellus, inhaled or nasal, 3.5 h, read-out: it Dose
# Description: The in vivo activity of the compounds of the present invention was evaluated as effectiveness in inhibiting BK-induced bronchospasm in the guinea pig (Tramontana, et al., J. Pharmacol. Exp. Therap. 296:1051-1057 (2001)), measuring the it dose (it=intratracheal administration) (in nmols/kg) which inhibited by 80% bronchial constriction for at least 210 min.
# [4] = human B2 receptor expressed in CHO cells
# [5] = antagonistic activity, bradykinin-induced inositol production, CHO cells transfected with B2 human receptor
# [6] = human B2 receptor expressed in CHO cells, read-out: pKi (converted)
# [7] = antagonistic activity, bradykinin-induced inositol production, CHO cells transfected with B2 human receptor, read-out: pA2 (converted)
SMILES,"Ki [1, 6] [nM]","Kb [2, 7] [nM]",Kb [2] [nM],Ki [1] [nM],"pKi [1, 4]","pA2 [2, 5]",ED80 [3] [µmol/kg],it Dose [3] [nmols/kg]
"Cc1cc(C)c2cccc(OCc3c(Cl)ccc(S(=O)(=O)NC4(C(=O)N5CCN(C(=O)[C@@H](N)CCC[N+](C)(C)C)CC5)CCOCC4)c3Cl)c2n1.Cl.Cl.[Cl-] [Example 1, (4-(S)-amino-5-(4-{4-[2,4-dichloro-3-(2,4-dimethyl-quinolin-8-yloxymethyl)-benzenesulfonylamino]tetrahydropyran-4-carbonyl}piperazin-1-yl)-5-oxo-pentyl]trimethyl-ammonium chloride, dihydrochloride]",–,–,–,–,10.3,10.3,0.03,–
"Cc1cc(C)c2cccc(OCc3c(Cl)ccc(S(=O)(=O)NC4(C(=O)N5CCN(C(=O)CCCC[N+](C)(C)C)CC5)CCOCC4)c3Cl)c2n1.O=C([O-])C(F)(F)F [Example 3, [5-(4-{4-[2,4-Dichloro-3-(2,4-dimethyl-quinolin-8-yloxymethyl)-benzene-sulfonylamino]tetrahydropyran-4-carbonyl}piperazin-1-yl)-5-oxo-pentyl]-trimethyl-ammonium trifluoroacetate.]",–,–,–,–,10.1,9.5,–,100
"Cc1cc(C)c2cccc(OCc3c(Cl)ccc(S(=O)(=O)NC4(C(=O)N5CCN(C(=O)[C@@H](N)CCC[N+](C)(C)C)CC5)CCCC4)c3Cl)c2n1 [Example 4, [4-(S)-Amino-5-(4-{1-[2,4-dichloro-3-(2,4-dimethyl-quinolin-8-yloxymethyl)-benzenesulfonylamino]cyclopentanecarbonyl}piperazin-1-yl)-5-oxo-pentyl]-trimethyl-ammonium chloride, dihydrochloride.]",0.0794,0.398,–,–,–,–,0.1,–
CCN=C(NCC)NCCCC(N)C(=O)N1CCN(C(=O)C2(NS(=O)(=O)c3ccc(Cl)c(COc4cccc5c(C)cc(C)nc45)c3Cl)CCCC2)CC1 (stereo not shown) [WO03103671 ex 44],–,–,1,–,–,–,0.3,–
Cc1ccc2cccc(OCc3c(Cl)ccc(S(=O)(=O)NC4(C(=O)N5CCN(C(=O)C(N)CCCCN(C)C)CC5)CCCC4)c3Cl)c2n1 (stereo not shown) [WO03103671 ex 57],–,–,5.01,1.58,–,–,0.3,–

# Further lines, with some results ahead:
"Ki [1, 6] [nM]","Kb [2, 7] [nM]",Kb [2] [nM],Ki [1] [nM],SMILES,"pKi [1, 4]","pA2 [2, 5]",ED80 [3] [µmol/kg],it Dose [3] [nmols/kg]
0.0631,0.2,–,–,"Cc1ccc2cccc(OCc3c(Cl)ccc(S(=O)(=O)NC4(C(=O)N5CCN(C(=O)[C@@H](N)CCC[N+](C)(C)C)CC5)CCOCC4)c3Cl)c2n1 [Example 2, (4-(S)-Amino-5-(4-(4-(2,4-dichloro-3-(2-methyl-quinolin-8-yloxymethyl)-benzenesulfonylamino)tetrahydropyran-4-carbonyl)-piperazin-1-yl-)5-oxo-pentyl)-trimethylammonium chloride, hydrochloride]",–,–,0.1,–
–,–,3.98,2,Cc1ccc2cccc(OCc3c(Cl)ccc(S(=O)(=O)NC4(C(=O)N5CCN(C(=O)C(N)CCCNC(=N)N)CC5)CCCC4)c3Cl)c2n1 (stereo not shown) [WO03103671 ex 55],–,–,0.3,–
1.58,1,–,–,Cc1cc(C)c2cccc(OCc3c(Cl)ccc(S(=O)(=O)NC4(C(=O)N5CCN(C(=O)C(N)CCCCN(C)C)CC5)CCCC4)c3Cl)c2n1 (stereo not shown) [WO03103671 ex 59],–,–,0.3,–
0.794,1.26,–,–,Cc1cc(C)c2cccc(OCc3c(Cl)ccc(S(=O)(=O)NC4(C(=O)N5CCN(C(=O)C(N)CCCCN)CC5)CCCC4)c3Cl)c2n1 (stereo not shown) [WO03103671 ex 63],–,–,0.3,–
–,–,6.31,0.2,Cc1cc(C)c2cccc(OCc3c(Cl)ccc(S(=O)(=O)NC4(C(=O)N5CCN(C(=O)C(CCCC[N+](C)(C)C)[N+](C)(C)C)CC5)CCCC4)c3Cl)c2n1 (stereo not shown) [WO03103671 ex 88],–,–,–,–
